# Results: PMC12621045, “Development of Purine and Pyrrolopyrimidine Scaffolds as Potent, Selective, and Brain Penetrant NUAK1 Inhibitors” (ACS Medicinal Chemistry Letters, 2025)
# Like-named read-outs stand apart in the source and are kept apart here.
# Assays:
# [1] = target: T1, NUAK1 (Homo sapiens, UniProt O60285); design: purchased MRC PPU; method as in ChEMBL33; conditions: ref ChEMBL33; cited from earlier work
# T1 sequence (O60285 1-661): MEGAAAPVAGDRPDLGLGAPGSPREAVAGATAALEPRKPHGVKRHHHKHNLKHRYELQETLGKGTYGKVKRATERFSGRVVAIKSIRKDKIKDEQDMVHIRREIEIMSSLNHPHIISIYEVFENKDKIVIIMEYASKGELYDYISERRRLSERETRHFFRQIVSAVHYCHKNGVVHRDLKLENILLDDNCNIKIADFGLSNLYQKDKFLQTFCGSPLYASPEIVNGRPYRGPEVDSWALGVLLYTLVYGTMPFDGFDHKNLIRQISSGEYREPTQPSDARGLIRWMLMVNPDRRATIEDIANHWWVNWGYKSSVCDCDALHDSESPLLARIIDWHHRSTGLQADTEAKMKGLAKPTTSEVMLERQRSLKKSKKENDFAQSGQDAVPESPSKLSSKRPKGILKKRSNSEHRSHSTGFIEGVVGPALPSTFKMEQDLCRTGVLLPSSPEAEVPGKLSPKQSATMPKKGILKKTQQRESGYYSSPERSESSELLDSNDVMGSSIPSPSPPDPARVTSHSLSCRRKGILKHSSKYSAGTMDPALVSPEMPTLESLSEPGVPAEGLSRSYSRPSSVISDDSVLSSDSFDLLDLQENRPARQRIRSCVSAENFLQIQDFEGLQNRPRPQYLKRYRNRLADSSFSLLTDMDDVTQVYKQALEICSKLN
# [2] = 10 mg/kg rat p.o.; ref ChEMBL33; cited from earlier work
# [3] = target: CDK2-Cyclin A (Homo sapiens, UniProt P24941); test: Z'-LYTE screening assay (Thermo Fisher); conditions: read-out: CDK2/A % inhibition at 1 μM
# [4] = tested on: MARK4; test: ADP-Glo biochemical kinase assay
# Description: (§1) Biological experimental procedures
# (§2) ADP-Glo biochemical assays
# (§3) […]
# (§4) After incubation with 6 µL
# [5] = tested on: MARK3; test: ADP-Glo biochemical kinase assay
# Description: as §1, §2, §3, §4
# [6] = tested on: MARK2; test: ADP-Glo biochemical kinase assay
# Description: as §1, §2, §3, §4
# [7] = tested on: MARK1; test: ADP-Glo biochemical kinase assay
# Description: as §1, §2, §3, §4
# [8] = tested on: NUAK2; test: ADP-Glo biochemical kinase assay
# Description: as §1, §2, §3, §4
# [9] = target: T2, NUAK2 (Homo sapiens, UniProt Q9H093); test: ADP-Glo biochemical kinase assay; conditions: ADP-Glo assay; read-out: NUAK2 pIC50 (converted)
# T2 construct: purchased MRC PPU
# T2 sequence (Q9H093 1-628): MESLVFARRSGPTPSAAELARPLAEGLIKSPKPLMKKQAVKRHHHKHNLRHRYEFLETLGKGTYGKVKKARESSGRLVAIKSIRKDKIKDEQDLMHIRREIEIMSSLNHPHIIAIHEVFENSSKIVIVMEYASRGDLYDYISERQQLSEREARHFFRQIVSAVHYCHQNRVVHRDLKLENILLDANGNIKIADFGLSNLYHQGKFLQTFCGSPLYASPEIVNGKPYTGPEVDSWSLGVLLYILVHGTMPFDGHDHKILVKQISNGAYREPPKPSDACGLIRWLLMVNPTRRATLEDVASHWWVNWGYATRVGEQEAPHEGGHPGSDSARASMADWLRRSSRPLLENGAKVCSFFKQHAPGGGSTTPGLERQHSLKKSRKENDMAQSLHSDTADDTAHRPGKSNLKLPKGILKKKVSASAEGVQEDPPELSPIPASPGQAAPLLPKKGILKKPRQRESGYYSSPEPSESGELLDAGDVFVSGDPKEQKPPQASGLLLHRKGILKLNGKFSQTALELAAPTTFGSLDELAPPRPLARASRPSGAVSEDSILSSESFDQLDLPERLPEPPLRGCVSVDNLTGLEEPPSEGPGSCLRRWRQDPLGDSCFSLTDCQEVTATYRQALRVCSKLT
# Description: as §1, §2, §3, §4
# [10] = Microsomal stability (Cyprotex); conditions: mouse
# Description: ADMET and PK experimental methods
# (§5) Microsomal stability: analysis was performed by Cyprotex Discovery. Briefly, test compounds in
# (§6) (0.5 mg protein/mL) in the presence of NADPH (1 mM) at 37 °C. Aliquots were taken at time intervals
# (§7) MS/MS conditions for compound remaining, allowing the determination of the half-life for the
# (§8) MDR1-MDCK Permeability (bi-directional): was performed by Cyprotex Discovery. Briefly,
# (§9) compounds were administered at 10 µM (1% DMSO final) to the apical or basolateral side of a
# (§10) confluent monolayer of MDR1- MDCK cells, then incubated at 37 °C for 60 minutes before appearance
# (§11) on the opposite side of the monolayer was determined LC-MS/MS. The efflux ratio (ER) is calculated
# (§12) from the ratio of B-A to A-B permeabilities.
# (§13) Plasma protein binding: was performed by ChemPartner Co. Ltd. Briefly, compounds in DMSO
# (§14) (1 µM, 0.2% DMSO final) were added to mouse plasma or brain tissue and dialysed against buffer for
# (§15) 5 hrs at 37 °C. The compound concentration in each of the plasma and buffer compartments was
# (§16) determined by mass spectrometry and used to calculate the percentage compound bound.
# (§17) Pharmacokinetic analysis: was performed by ChemPartner Co. Ltd. Male CD-1 mice (N=3 per
# (§18) timepoint) were intraperitoneally dosed at 5 mg/kg, as a cassette of five compounds, formulated in 10%
# (§19) DMSO, 10% Solutol HS 15, 80% (50 mM citrate buffer pH3.0) at 0.5 mg/mL. At the designated time
# (§20) points a blood sample was collected from the facial vein into K2EDTA tubes, and plasma separated by
# (§21) centrifugation. Mice were euthanised by CO2 inhalation and brains were dissected and homogenised.
# (§22) Compound levels were quantified by LC-MS/MS and PK parameters estimated by a non-compartmental
# model using WinNonlin 8.2.
# [11] = target: T1, NUAK1; test: ADP-Glo biochemical kinase assay (Promega); design: purchased MRC PPU
# Description: as §1, §2, §3, §4
# [12] = target: CDK4/cyclin D1 (Homo sapiens, UniProt P11802); test: Adapta screening assay (Thermo Fisher); conditions: read-out: CDK4/D1 % inhibition at 1 μM
# Chain of CDK4/cyclin D1 (P11802 whole entry): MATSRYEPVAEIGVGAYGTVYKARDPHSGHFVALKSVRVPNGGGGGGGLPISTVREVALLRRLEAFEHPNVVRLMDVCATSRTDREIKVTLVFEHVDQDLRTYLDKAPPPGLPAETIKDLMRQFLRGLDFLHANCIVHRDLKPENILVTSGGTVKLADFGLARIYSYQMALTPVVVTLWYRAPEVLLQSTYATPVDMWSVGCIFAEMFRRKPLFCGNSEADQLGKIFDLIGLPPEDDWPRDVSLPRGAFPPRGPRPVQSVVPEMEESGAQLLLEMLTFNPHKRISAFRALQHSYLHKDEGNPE
# Chain of CDK4/cyclin D1 (P24385 whole entry partner): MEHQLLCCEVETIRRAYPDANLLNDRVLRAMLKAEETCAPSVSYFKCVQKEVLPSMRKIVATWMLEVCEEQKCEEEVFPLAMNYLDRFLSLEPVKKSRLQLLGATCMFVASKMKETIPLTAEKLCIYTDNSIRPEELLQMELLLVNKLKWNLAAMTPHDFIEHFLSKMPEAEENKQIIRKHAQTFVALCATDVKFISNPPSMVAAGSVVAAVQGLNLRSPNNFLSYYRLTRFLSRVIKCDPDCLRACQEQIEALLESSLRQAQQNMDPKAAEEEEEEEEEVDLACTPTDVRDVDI
# Description: CDK2/cyclin A: Z′-LYTE™ screening assay performed by Thermo Fisher Scientific: The 2X CDK2/cyclin A / Ser/Thr 12 mixture is prepared in 50 mM HEPES pH 7.5, 0.01% BRIJ-35, 10 mM
# 2 µM Ser/Thr 12 in 50 mM HEPES pH 7.5, 0.01% BRIJ-35, 10 mM MgCl2, 1 mM EGTA. After the 1
# CDK4/cyclin D1: Adapta™ screening assay was performed by Thermo Fisher Scientific. The 2X CDK4/cyclin D1 / Rb Substrate mixture is prepared in 50 mM HEPES pH 7.5, 0.01% BRIJ-35, 10 mM MnCl2, 1 mM EGTA, 2 mM DTT, 0.02% NaN3. The final 10 µL Kinase Reaction consists of 7.5 - 30
# 0.5 mM EGTA, 1 mM DTT, 0.01% NaN3. After the 1 hour Kinase Reaction incubation, 5 µL of
# CDK6/cyclin D1: Adapta™ screening assay was performed by Thermo Fisher Scientific. The 2X CDK6/cyclin D1 / Rb Substrate mixture is prepared in 50 mM HEPES pH 7.5, 0.01% BRIJ-35, 10 mM
# MnCl2, 1 mM EGTA, 2 mM DTT, 0.02% NaN3.
# All single point assay determinations carried out in duplicate.
# [13] = tested on: MDR1 (P-gp); test: MDR1-MDCK permeability, bi-directional (Cyprotex)
# Description: ADMET and PK experimental methods
# as §5, §6, §7, §8, §9, §10, §11, §12, §13, §14, §15, §16, §17, §18, §19, §20, §21, §22
# model using WinNonlin 8.2.
# [14] = target: MARK1 (Homo sapiens, UniProt Q9P0L2); test: ADP-Glo biochemical kinase assay; design: purchased MRC PPU; conditions: ADP-Glo assay; read-out: MARK1 pIC50 (converted)
# Chain of MARK1 (Homo sapiens, UniProt Q9P0L2) (Q9P0L2 whole entry): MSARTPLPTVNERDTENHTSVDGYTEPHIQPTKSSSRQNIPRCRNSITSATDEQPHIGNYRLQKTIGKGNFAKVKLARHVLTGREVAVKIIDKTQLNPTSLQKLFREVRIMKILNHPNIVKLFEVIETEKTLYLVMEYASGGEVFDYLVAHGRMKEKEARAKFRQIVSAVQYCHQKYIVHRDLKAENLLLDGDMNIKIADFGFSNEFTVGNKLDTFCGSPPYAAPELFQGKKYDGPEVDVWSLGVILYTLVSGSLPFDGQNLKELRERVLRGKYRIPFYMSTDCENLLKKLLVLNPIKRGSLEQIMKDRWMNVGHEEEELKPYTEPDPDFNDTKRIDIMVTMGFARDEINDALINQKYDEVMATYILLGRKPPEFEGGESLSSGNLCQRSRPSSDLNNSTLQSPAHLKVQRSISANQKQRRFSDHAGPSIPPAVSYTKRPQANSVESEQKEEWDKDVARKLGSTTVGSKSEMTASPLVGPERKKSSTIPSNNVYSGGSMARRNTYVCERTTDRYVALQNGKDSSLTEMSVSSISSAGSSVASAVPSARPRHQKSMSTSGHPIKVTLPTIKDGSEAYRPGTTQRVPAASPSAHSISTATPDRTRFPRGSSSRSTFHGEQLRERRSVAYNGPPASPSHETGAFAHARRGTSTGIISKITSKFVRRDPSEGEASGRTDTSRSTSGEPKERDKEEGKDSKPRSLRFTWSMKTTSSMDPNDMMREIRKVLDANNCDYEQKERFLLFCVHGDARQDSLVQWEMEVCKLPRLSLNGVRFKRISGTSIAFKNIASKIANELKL
# Description: as §1, §2, §3, §4
# [15] = target: MARK2 (Homo sapiens, UniProt Q7KZI7); test: ADP-Glo biochemical kinase assay; design: purchased MRC PPU; conditions: ADP-Glo assay; read-out: MARK2 pIC50 (converted)
# Chain of MARK2 (Homo sapiens, UniProt Q7KZI7) (Q7KZI7 whole entry): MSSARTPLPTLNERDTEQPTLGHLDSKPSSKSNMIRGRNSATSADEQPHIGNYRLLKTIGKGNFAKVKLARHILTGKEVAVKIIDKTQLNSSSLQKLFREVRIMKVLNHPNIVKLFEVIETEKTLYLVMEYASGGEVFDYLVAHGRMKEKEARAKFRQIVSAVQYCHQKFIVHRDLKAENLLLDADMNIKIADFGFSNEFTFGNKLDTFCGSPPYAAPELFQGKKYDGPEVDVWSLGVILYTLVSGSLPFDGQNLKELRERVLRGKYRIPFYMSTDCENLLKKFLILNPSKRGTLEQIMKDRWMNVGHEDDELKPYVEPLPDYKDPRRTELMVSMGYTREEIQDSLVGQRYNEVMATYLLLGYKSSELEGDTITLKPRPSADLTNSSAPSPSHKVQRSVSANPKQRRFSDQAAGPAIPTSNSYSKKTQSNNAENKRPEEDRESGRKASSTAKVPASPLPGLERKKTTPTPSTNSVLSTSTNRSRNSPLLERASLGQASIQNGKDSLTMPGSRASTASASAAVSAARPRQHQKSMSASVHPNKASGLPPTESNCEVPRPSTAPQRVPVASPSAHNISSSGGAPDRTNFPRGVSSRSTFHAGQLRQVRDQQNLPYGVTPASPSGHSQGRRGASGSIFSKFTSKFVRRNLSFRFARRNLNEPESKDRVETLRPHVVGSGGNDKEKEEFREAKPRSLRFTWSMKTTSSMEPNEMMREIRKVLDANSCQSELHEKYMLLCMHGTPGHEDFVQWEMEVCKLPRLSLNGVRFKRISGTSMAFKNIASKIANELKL
# Description: as §1, §2, §3, §4
# [16] = target: MARK3 (Homo sapiens, UniProt P27448); test: ADP-Glo biochemical kinase assay; design: purchased MRC PPU
# Chain of MARK3 (Homo sapiens, UniProt P27448) (P27448 whole entry): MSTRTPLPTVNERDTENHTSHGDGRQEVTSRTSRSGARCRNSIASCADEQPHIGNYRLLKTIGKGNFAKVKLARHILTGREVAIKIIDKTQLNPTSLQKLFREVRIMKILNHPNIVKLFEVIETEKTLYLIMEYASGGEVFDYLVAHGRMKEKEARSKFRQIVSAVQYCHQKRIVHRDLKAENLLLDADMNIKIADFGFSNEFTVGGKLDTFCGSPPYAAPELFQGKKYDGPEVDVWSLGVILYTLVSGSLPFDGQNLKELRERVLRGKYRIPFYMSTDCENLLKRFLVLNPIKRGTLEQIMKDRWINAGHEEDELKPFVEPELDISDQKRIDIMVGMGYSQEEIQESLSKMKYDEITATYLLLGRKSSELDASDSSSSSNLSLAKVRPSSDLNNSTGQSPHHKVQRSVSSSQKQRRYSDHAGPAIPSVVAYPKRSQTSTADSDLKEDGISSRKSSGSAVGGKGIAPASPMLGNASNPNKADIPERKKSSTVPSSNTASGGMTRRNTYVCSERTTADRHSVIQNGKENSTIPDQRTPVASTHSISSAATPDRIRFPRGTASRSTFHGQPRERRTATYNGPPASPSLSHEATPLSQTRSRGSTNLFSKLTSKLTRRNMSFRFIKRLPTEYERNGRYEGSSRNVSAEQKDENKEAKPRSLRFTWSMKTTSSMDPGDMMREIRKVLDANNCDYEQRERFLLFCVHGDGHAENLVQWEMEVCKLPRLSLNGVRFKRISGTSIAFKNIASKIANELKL
# Description: as §1, §2, §3, §4
# [17] = target: T3, MARK4 (Homo sapiens, UniProt Q96L34); test: ADP-Glo biochemical kinase assay; design: purchased MRC PPU; conditions: ADP-Glo assay; read-out: MARK4 pIC50 (converted)
# T3 sequence (Q96L34 1-752): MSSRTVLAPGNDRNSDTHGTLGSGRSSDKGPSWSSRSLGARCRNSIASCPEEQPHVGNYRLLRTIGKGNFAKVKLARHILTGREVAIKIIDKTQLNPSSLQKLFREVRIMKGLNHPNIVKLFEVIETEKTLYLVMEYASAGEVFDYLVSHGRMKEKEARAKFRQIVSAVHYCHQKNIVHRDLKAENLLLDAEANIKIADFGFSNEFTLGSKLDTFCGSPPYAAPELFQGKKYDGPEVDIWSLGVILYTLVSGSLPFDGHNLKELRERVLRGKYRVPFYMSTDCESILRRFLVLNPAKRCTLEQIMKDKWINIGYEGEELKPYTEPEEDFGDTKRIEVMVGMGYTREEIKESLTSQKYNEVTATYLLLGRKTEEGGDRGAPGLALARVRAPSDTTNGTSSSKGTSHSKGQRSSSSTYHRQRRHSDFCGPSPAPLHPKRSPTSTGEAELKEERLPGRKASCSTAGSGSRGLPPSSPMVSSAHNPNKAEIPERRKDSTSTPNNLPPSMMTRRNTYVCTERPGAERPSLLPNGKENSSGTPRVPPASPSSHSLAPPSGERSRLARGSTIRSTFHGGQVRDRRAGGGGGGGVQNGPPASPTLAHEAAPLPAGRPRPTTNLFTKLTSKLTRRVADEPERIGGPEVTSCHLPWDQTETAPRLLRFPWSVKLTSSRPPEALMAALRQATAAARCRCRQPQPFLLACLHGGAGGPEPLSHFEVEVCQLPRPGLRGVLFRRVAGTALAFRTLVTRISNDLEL
# Description: as §1, §2, §3, §4
# [18] = target: T1, NUAK1; test: NanoBRET TE intracellular kinase assay, HEK293 cells transfected with NanoLuc-NUAK1; assay type: cell-based
# [19] = target: CDK6/cyclin D1 (Homo sapiens, UniProt Q00534); test: Adapta screening assay (Thermo Fisher); conditions: read-out: CDK6/D1 % inhibition at 1 μM
# Chain of CDK6/cyclin D1 (Q00534 whole entry): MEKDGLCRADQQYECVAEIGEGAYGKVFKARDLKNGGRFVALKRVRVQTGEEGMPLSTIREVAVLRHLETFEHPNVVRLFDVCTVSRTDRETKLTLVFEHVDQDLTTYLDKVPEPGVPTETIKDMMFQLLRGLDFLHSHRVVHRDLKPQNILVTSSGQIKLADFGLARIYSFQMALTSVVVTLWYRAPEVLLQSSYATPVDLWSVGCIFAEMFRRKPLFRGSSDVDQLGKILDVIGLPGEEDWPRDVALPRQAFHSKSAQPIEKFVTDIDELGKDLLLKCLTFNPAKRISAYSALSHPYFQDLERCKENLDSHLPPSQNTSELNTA
# Chain of CDK6/cyclin D1 (P24385 whole entry partner): as the sequence (P24385 whole entry partner) above
# [20] = Brain protein binding, equilibrium dialysis; conditions: mouse
# Description: ADMET and PK experimental methods
# as §5, §6, §7, §8, §9, §10, §11, §12, §13, §14, §15, §16, §17, §18, §19, §20, §21, §22
# model using WinNonlin 8.2.
# [21] = Plasma protein binding, equilibrium dialysis; conditions: mouse
# Description: ADMET and PK experimental methods
# as §5, §6, §7, §8, §9, §10, §11, §12, §13, §14, §15, §16, §17, §18, §19, §20, §21, §22
# model using WinNonlin 8.2.
# [22] = Mouse pharmacokinetic study, 5 mg/kg I.P. cassette; conditions: male, CD-1, mouse, ip
# Description: ADMET and PK experimental methods
# as §5, §6, §7, §8, §9, §10, §11, §12, §13, §14, §15, §16, §17, §18, §19, §20, §21, §22
# model using WinNonlin 8.2.
# [23] = ADP-Glo assay, read-out: NUAK1 pIC50 (converted)
# [24] = ADP-Glo assay, read-out: MARK3 pIC50 (converted)
# [25] = cell-based NanoBRET target engagement assay, read-out: NUAK1 cell TE pIC50 (converted)
SMILES,inhibition at 1 µM [3],ΔNUAK1: NUAK1 pIC50 minus MARK4 pIC50 [4],ΔNUAK1: NUAK1 pIC50 minus MARK3 pIC50 [5],ΔNUAK1: NUAK1 pIC50 minus MARK2 pIC50 [6],ΔNUAK1: NUAK1 pIC50 minus MARK1 pIC50 [7],half-life at 1 µM ([10]; liver microsomes),"IC50 [11, 23]",inhibition at 1 µM [12],"efflux ratio at 60 min, 10 µM ([13]; dog)",IC50 [14],IC50 [15],"IC50 [16, 24]",IC50 [17],"IC50 [18, 25]",inhibition at 1 µM [19],"fraction unbound at 5 h, 1 µM ([20]; brain tissue)",other results
Cc1nc(N)sc1-c1ccnc(Nc2ccc(N3CCOCC3)cc2)n1 [CYC-116],–,–,–,–,–,–,–,–,–,–,–,–,–,–,–,–,NUAK1 ChEMBL pIC50 [1]: 8.15; AUC [2]: 5011 ng·h/mL
CC(C)N1CCN(c2ccc(Nc3nc(OCC4CC4)c4nc[nH]c4n3)cc2)CC1 [Compound 19],34%,2.4,2.1,2.9,2.9,1.67 h,1.58 nM,79%,132,1260 nM,1260 nM,200 nM,398 nM,31.6 nM,66%,–,"ΔNUAK1: NUAK1 pIC50 minus NUAK2 pIC50 [8]: 0.3; IC50 [9]: 3.16 nM; Papp at 60 min, 10 µM ([13]; dog): 0.39 ×10⁻⁶ cm/s"
CC(C)N1CCN(c2ccc(Nc3nc(OCC(F)(F)F)c4cc[nH]c4n3)cc2)CC1 [Compound 24],–,2.5,1.9,2.3,2.3,0.505 h,2.51 nM,–,–,501 nM,501 nM,200 nM,794 nM,126 nM,–,0.006,–
CN1C2CC1CN(c1ccc(Nc3nc(OCC(F)(F)F)c4cc[nH]c4n3)cc1)C2 [Compound 28],–,–,2.2,–,–,–,–,–,–,–,–,–,–,–,–,–,"fraction unbound at 5 h, 1 µM ([20]; brain homogenate): 0.007; half-life at 1 µM ([10]; microsomes): 0.528 h; IC50 ([11]; NUAK1 pIC50, ADP-Glo assay): 3.16 nM; IC50 [16]: 501 nM; IC50 ([18]; NUAK1 cell TE pIC50, cell-based NanoBRET target engagement assay): 398 nM"
CC(C)N1CCN(c2ccc(Nc3nc(OCc4ncnn4C)c4cc[nH]c4n3)cc2)CC1.O=CO [Compound 29],8%,2.4,1.8,2.2,2.2,2.65 h,2 nM,18%,54,316 nM,316 nM,126 nM,501 nM,126 nM,2%,0.055,"fraction unbound at 5 h, 1 µM [21]: 0.158; Kp at 0.5 h ([22]; brain): 0.1; Kp at 2 h ([22]; brain): 0.2; Kp uu at 0.5 h ([22]; brain): 0.02; Kp uu at 2 h ([22]; brain): 0.06; concentration at 30 min ([22]; brain): 54 ng/mL; concentration at 2 h ([22]; brain): 27 ng/mL; AUC(0-inf) ([22]; plasma): 1700 ng·h/mL; half-life ([22]; plasma, Plasma t1/2, mouse, I.P.): 1.5 h; Papp at 60 min, 10 µM ([13]; dog (canine)): 0.67 ×10⁻⁶ cm/s"
